Test results from ChEMBL document CHEMBL2150895, “Zizimauritic acids A-C, three novel nortriterpenes from Ziziphus mauritiana” (Bioorg Med Chem Lett, 2012).
In brackets after ≈: the same amount, converted by molar mass. Activity calls are given as the source filed them. The calls are words filed in the database; no cut-off is given here.

Tests used:
A549 = experiment: Cytotoxicity against human A549 cells; type: functional, cell-based
BGC-823 = experiment: Cytotoxicity against human BGC823 cells; type: functional, cell-based
HeLa = experiment: Cytotoxicity against human HeLa cells; type: functional, cell-based
Staphylococcus aureus = experiment: Antibacterial activity against Staphylococcus aureus; type: functional, organism-based
Candida albicans = experiment: Antifungal activity against Candida albicans; type: functional, organism-based

## CO[C@@H]1C[C@@]2(CC[C@]3(C(=O)O)[C@H](CC[C@@H]4[C@@]5(C)C=CC(C)(C)[C@@H]5CC[C@]43C)[C@H]2C=C(C)C)C(=O)O1 [ZIZIMAURITIC ACID B]
A549
  IC50: 5.05 µg/mL (≈ 10.4 µM)
BGC-823
  IC50: 6.24 µg/mL (≈ 12.9 µM)
HeLa
  IC50: 5.36 µg/mL (≈ 11.1 µM)
Staphylococcus aureus
  IC50: > 20 µg/mL
Candida albicans
  IC50: > 10 µg/mL

## CC1(C)S[C@@H]2[C@H](NC(=O)[C@H](N)c3ccccc3)C(=O)N2[C@H]1C(=O)O [AMPICILLIN]
Staphylococcus aureus
  IC50: 0.04 µg/mL (≈ 0.114 µM)

## CC(C)=C[C@@H]1[C@H]2CC[C@@H]3[C@@]4(C)C=CC(C)(C)[C@@H]4CC[C@@]3(C)[C@]2(C(=O)O)CC[C@@]12CC(O)OC2=O (mixture of isomers) [ZIZIMAURITIC ACID C]
A549
  IC50: 11.9 µg/mL
BGC-823
  IC50: 10.1 µg/mL
HeLa
  IC50: 9.25 µg/mL
Staphylococcus aureus
  IC50: 12.8 µg/mL
Candida albicans
  IC50: > 10 µg/mL

## C=C(C)[C@@H]1CC[C@]2(C(=O)O)CC[C@]3(C)[C@H](CC[C@@H]4[C@@]5(C)[C@@H](C(=O)O)[C@H](O)C(C)(C)[C@@H]5CC[C@]43C)[C@@H]12
A549
  Activity: inactive
BGC-823
  Activity: inactive
HeLa
  Activity: inactive
Staphylococcus aureus
  Activity: inactive

## C=C(C)[C@@H]1CC[C@]2(C(=O)O)CC[C@]3(C(=O)O)[C@H](CC[C@@H]4[C@@]5(C)C=CC(C)(C)[C@@H]5CC[C@]43C)[C@@H]12 [CEANOTHENIC ACID]
BGC-823
  IC50: > 10 µg/mL
HeLa
  IC50: 7.55 µg/mL (≈ 16.6 µM)
Staphylococcus aureus
  IC50: > 20 µg/mL
Candida albicans
  IC50: > 10 µg/mL

## CO[C@H]1C[C@@]2(CC[C@]3(C(=O)O)[C@H](CC[C@@H]4[C@@]5(C)C=CC(C)(C)[C@@H]5CC[C@]43C)[C@H]2C=C(C)C)C(=O)O1 [ZIZIMAURITIC ACID A]
A549
  IC50: 9.37 µg/mL (≈ 19.3 µM)
BGC-823
  IC50: 8.8 µg/mL (≈ 18.2 µM)
HeLa
  IC50: 6.06 µg/mL (≈ 12.5 µM)
Staphylococcus aureus
  IC50: 2.17 µg/mL (≈ 4.48 µM)
Candida albicans
  IC50: > 10 µg/mL

## Clc1ccc(COC(Cn2ccnc2)c2ccc(Cl)cc2Cl)c(Cl)c1.O=[N+]([O-])O (configuration not stated) [MICONAZOLE NITRATE]
Candida albicans
  IC50: 0.16 µg/mL

## CC(=O)O[C@H]1C(=O)[C@@]2(C)[C@H]([C@H](OC(=O)c3ccccc3)[C@]3(O)C[C@H](OC(=O)[C@H](O)[C@@H](NC(=O)c4ccccc4)c4ccccc4)C(C)=C1C3(C)C)[C@]1(OC(C)=O)CO[C@@H]1C[C@@H]2O [PACLITAXEL]
A549
  IC50: 0.02 µg/mL (≈ 0.0234 µM)
BGC-823
  IC50: 0.01 µg/mL (≈ 0.0117 µM)
HeLa
  IC50: 0.38 µg/mL (≈ 0.445 µM)

## C=C(C)[C@@H]1CC[C@]2(C(=O)O)CC[C@]3(C)[C@H](CC[C@@H]4[C@@]5(C)CC[C@H](O)C(C)(C)[C@@H]5CC[C@]43C)[C@@H]12
A549
  Activity: inactive
BGC-823
  Activity: inactive
HeLa
  Activity: inactive
Staphylococcus aureus
  Activity: inactive
